Test results as given in US7709600B2, “Interaction between the VHL tumor suppressor and hypoxia inducible factor, and assay methods relating thereto” (Isis Innovation Limited, priority 1999, dated 2010).
Where two headings read alike, the source gives them in different places.

Key:
HIF-1α = assay: In vitro ubiquitylation assay for HIF-1α; format: biochemical, human
Method: To test the hypothesis that pVHL is a necessary component of a ubiquitin ligase complex recognising HIF-α we developed an in vitro ubiquitylation assay for HIF-1α. In this assay, cell extracts (initially from Cos-7) were incubated with [^35S]labelled HIF-1α prepared in vitro in reticulocyte lysates. This was used as substrate in reactions with different combinations of extract, an ATP-regenerating system, ubiquitin aldehyde, and methylated ubiquitin. Reactions were incubated at 30° C. for 270 minutes before analysis by SDS-PAGE.
Incubation with extract alone converted the HIF-1α substrate to a slower migrating form, an effect which was enhanced by an ATP-regenerating system, and was prevented by addition of the protein kinase inhibitor 2-aminopurine. […] This assignment was confirmed by enhancement with addition of ubiquitin aldehyde, an isopeptidase inhibitor that prevents the breakdown of ubiquitin conjugates.
An experiment similar to that of section (h) above was performed but with the omission of ubiquitin aldehyde. pVHL was generated by in vitro transcription translation, and HIF-1α was also generated in reticulocyte lysate in the presence or absence of 100 μM Fe2+ and Fe3+. […] Thus assays of the invention may be used for the identification of compounds acting at a point distal to the HIF-pVHL interaction (i.e. not altering binding but interfering with tagging or destruction). It also provides further evidence for modifications of HIF influencing its ability to bind pVHL. […]
In vitro ubiquitylation assay. […] Aliquots were removed at indicated times, mixed with SDS sample buffer and analysed by SDS-PAGE and autoradiography. Gels were quantitated using a Storm 840 PhosphorImager (Molecular Dynamics).

pVHL-HIF-1α interaction [1] = target: pVHL-HIF-1α interaction (Homo sapiens, UniProt P40337+Q16665); assay: pVHL interaction with HIF-1α sequences translated in reticulocyte lysate in the presence of metal ions; format: binding
[2] = test system: pVHL interaction with HIF-1α and HIF-2α; assay: Anti-pVHL immunoprecipitation of RCC4/VHL cell extracts, immunoblot for HIF α subunits; conditions: treated RCC4/VHL cells, compared with hypoxic cells
pVHL/HIF-1 complex = pVHL/HIF-1 complex (Homo sapiens, UniProt P40337+Q16665); assay: EMSA / anti-pVHL supershift of the HIF-1 DNA binding complex from treated RCC4/VHL cells; conditions: for HIF-1 complex species seen in EMSA: RCC4/VHL cells cultured four hours, 100 μM
pVHL-HIF-1α interaction [3] = assay: pVHL interaction with HIF-1α sequences translated in reticulocyte lysate in the presence of metal ions; format: binding, human; conditions: subsequences 556-574, 549-574, 556-582, 549-582; 100 μM Fe2+ and 100 μM Fe3+
[4] = full HIF-1α, 100 μM ion during translation

Row | Molecule | interaction of pVHL with HIF-1α translated in the presence of the ion (pVHL-HIF-1α interaction [1]; [4]) | HIF-1α and HIF-2α contained in anti-pVHL immunoprecipitates [2] | HIF-1 complex species seen in EMSA (pVHL/HIF-1 complex) | further results
1 | Nc1ncc2[nH]cnc2n1 [2-aminopurine] | – | – | – | conversion of HIF-1α substrate to a slower migrating form (phosphorylation) (HIF-1α; Cos-7 cell extract, 30° C.): prevented
2 | [Cl-].[Cl-].[Co+2] [cobalt, cobaltous chloride] | diminishes | neither protein was contained | only the faster mobility HIF-1 complex | –
3 | CC(=O)N(O)CCCCCNC(=O)CCC(=O)N(O)CCCCCNC(=O)CCC(=O)N(O)CCCCCN [desferrioxamine] | – | neither protein was contained | only the faster mobility HIF-1 complex | pVHL/HIF-1 complex forming (pVHL/HIF-1 complex; treatment four hours prior to hypoxia): prevented
4 | [Ni+2] [nickel] | – | – | – | interaction of pVHL with HIF-1α translated in the presence of the ion (pVHL-HIF-1α interaction [1]): diminishes
5 | iron | enhances | – | – | amount of interaction of pVHL with HIF-1 subsequences (pVHL-HIF-1α interaction [3]): substantial increase; ubiquitylation of HIF-1α produced in the presence of the ions (HIF-1α; HIF-1α generated in reticulocyte lysate with 100 μM Fe2+ and Fe3+, ubiquitin aldehyde omitted): Enhanced ubiquitylation
6 | ubiquitin aldehyde | – | – | – | generation of high molecular weight polyubiquitylated HIF-1α species (HIF-1α; Cos-7 cell extract, 30° C., 270 minutes): enhancement
